Test results: BindingDB's records for doi:10.1021/jm980414r (Glaxo Wellcome Research and Development, 1998)

assay: -log concentration required to induce 50% maximum lipogenic activity against Peroxisome proliferator activated receptor gamma

| EC50 | Structure (SMILES) |
| --- | --- |
| 178 nM | CN(CCOc1ccc(CC(Nc2ccc(Cl)cc2C(=O)c2ccccc2)C(=O)O)cc1)c1nc2ccccc2o1 (stereo unspecified) |
| 0.427 nM | CCOC(=O)c1ccccc1NC(Cc1ccc(OCCc2nc(-c3ccccc3)oc2C)cc1)C(=O)O (stereo unspecified) |
| 339 nM | CN(CCOc1ccc(CC(Nc2ccccc2C(=O)c2ccc(-c3ccccc3)cc2)C(=O)O)cc1)c1nc2ccccc2o1 (stereo unspecified) |
| < 2510 nM | CSc1nc(NC(Cc2ccc(OCCN(C)c3nc4ccccc4o3)cc2)C(=O)O)c(C(=O)c2ccccc2)s1 (stereo unspecified) |
| 759 nM | Cc1oc(-c2ccccc2)nc1CCOc1ccc(CC(Nc2ccccc2C(=O)c2cccc(CO)c2)C(=O)O)cc1 (stereo unspecified) |
| 363 nM | CNC(=O)c1ccccc1NC(Cc1ccc(OCCc2nc(-c3ccccc3)oc2C)cc1)C(=O)O (stereo unspecified) |
| 891 nM | CN(CCOc1ccc(CC(Nc2ccccc2C(=O)c2cccc(OCc3ccccc3)c2)C(=O)O)cc1)c1nc2ccccc2o1 (stereo unspecified) |
| 95 nM | COc1ccc(C(=O)c2ccccc2NC(Cc2ccc(OCCN(C)c3nc4ccccc4o3)cc2)C(=O)O)cc1 (stereo unspecified) |
| 69 nM | CN(CCOc1ccc(CC(Nc2ccccc2C(=O)c2ccc(C(F)(F)F)cc2)C(=O)O)cc1)c1nc2ccccc2o1 (stereo unspecified) |
| 3.2 nM | Cc1oc(-c2ccccc2)nc1CCOc1ccc(CC(Nc2ccccc2C(=O)OC(C)C)C(=O)O)cc1 (stereo unspecified) |
| > 1000 nM | Cc1oc(-c2ccccc2)nc1CCOc1ccc(CC(Nc2ccccc2C(=O)N(C)C)C(=O)O)cc1 (stereo unspecified) |
| 27 nM | CN(CCOc1ccc(CC(Nc2ccccc2C(=O)c2cccc(C(F)(F)F)c2)C(=O)O)cc1)c1nc2ccccc2o1 (stereo unspecified) |
| 1180 nM | Cc1oc(-c2ccccc2)nc1CCOc1ccc(CC(Nc2ccccc2C(=O)c2cccc(CN(C)C)c2)C(=O)O)cc1 (stereo unspecified) |
| 17 nM | Cc1oc(-c2ccccc2)nc1CCOc1ccc(CC(Nc2ccccc2C(=O)c2cccnc2)C(=O)O)cc1 (stereo unspecified) |
| 155 nM | COc1cccc(C(=O)c2ccccc2NC(Cc2ccc(OCCN(C)c3nc4ccccc4o3)cc2)C(=O)O)c1 (stereo unspecified) |
| 12 nM | Cc1ccc(C(=O)c2ccccc2NC(Cc2ccc(OCCN(C)c3nc4ccccc4o3)cc2)C(=O)O)cc1 (stereo unspecified) |
| 676 nM | CN(CCOc1ccc(CC(Nc2ccccc2C(=O)c2ccc(OCc3ccccc3)cc2)C(=O)O)cc1)c1nc2ccccc2o1 (stereo unspecified) |
| 66 nM | CN(CCOc1ccc(CC(Nc2ccccc2C(=O)C2CCCCCC2)C(=O)O)cc1)c1nc2ccccc2o1 (stereo unspecified) |
| 14 nM | Cc1cccc(C(=O)c2ccccc2NC(Cc2ccc(OCCN(C)c3nc4ccccc4o3)cc2)C(=O)O)c1 (stereo unspecified) |
| 1.4 nM | CN(CCOc1ccc(CC(Nc2cscc2C(=O)c2ccccc2)C(=O)O)cc1)c1nc2ccccc2o1 (stereo unspecified) |
| 24 nM | CN(CCOc1ccc(CC(Nc2ccccc2C(=O)C2CCCC2)C(=O)O)cc1)c1nc2ccccc2o1 (stereo unspecified) |

| EC50 | Structure (SMILES) |
| --- | --- |
| 71 nM | CN(CCOc1ccc(CC(Nc2ccccc2C(=O)c2ccccc2C(F)(F)F)C(=O)O)cc1)c1nc2ccccc2o1 (stereo unspecified) |
| 78 nM | CN(CCOc1ccc(CC(Nc2ccccc2C(=O)c2cccs2)C(=O)O)cc1)c1nc2ccccc2o1 (stereo unspecified) |
| 132 nM | Cc1oc(-c2ccccc2)nc1CCOc1ccc(CC(Nc2ccccc2C(=O)c2cccc(N)c2)C(=O)O)cc1 (stereo unspecified) |
| 501 nM | COc1ccccc1C(=O)c1ccccc1NC(Cc1ccc(OCCN(C)c2nc3ccccc3o2)cc1)C(=O)O (stereo unspecified) |
| 95 nM | CN(CCOc1ccc(CC(Nc2sccc2C(=O)c2ccccc2)C(=O)O)cc1)c1nc2ccccc2o1 (stereo unspecified) |
| 107 nM | Cc1oc(-c2ccccc2)nc1CCOc1ccc(CC(Nc2ccccc2C(=O)c2ccncc2)C(=O)O)cc1 (stereo unspecified) |
| 372 nM | Cc1oc(-c2ccccc2)nc1CCOc1ccc(C[C@@H](Nc2ccccc2C(=O)C2CCCCC2)C(=O)O)cc1 |
| 977 nM | Cc1oc(-c2ccccc2)nc1CCOc1ccc(CC(Nc2ccccc2C(=O)c2ccc(CN(C)C)cc2)C(=O)O)cc1 (stereo unspecified) |
| 13 nM | CCCOC(=O)c1ccccc1NC(Cc1ccc(OCCc2nc(-c3ccccc3)oc2C)cc1)C(=O)O (stereo unspecified) |
| > 10000 nM | Cc1oc(-c2ccccc2)nc1CCOc1ccc(CC(Nc2ccccc2C(=O)O)C(=O)O)cc1 (stereo unspecified) |
| 4.4 nM | CN(CCOc1ccc(CC(Nc2ccccc2C(=O)c2ccccc2)C(=O)O)cc1)c1nc2ccccc2o1 (stereo unspecified) |
| 174 nM | Cc1oc(-c2ccccc2)nc1CCOc1ccc(CC(Nc2ccccc2C(=O)c2ccc(CO)cc2)C(=O)O)cc1 (stereo unspecified) |
| 3.5 nM | CN(CCOc1ccc(CC(Nc2ccsc2C(=O)c2ccccc2)C(=O)O)cc1)c1nc2ccccc2o1 (stereo unspecified) |
| 63 nM | Cc1ccc(NC(Cc2ccc(OCCN(C)c3nc4ccccc4o3)cc2)C(=O)O)c(C(=O)c2ccccc2)c1 (stereo unspecified) |
| 6.9 nM | Cc1ccccc1C(=O)c1ccccc1NC(Cc1ccc(OCCN(C)c2nc3ccccc3o2)cc1)C(=O)O (stereo unspecified) |
| 72 nM | CN(CCOc1ccc(CC(Nc2ccccc2C(=O)c2ccsc2)C(=O)O)cc1)c1nc2ccccc2o1 (stereo unspecified) |
| 8.5 nM | CN(CCOc1ccc(C[C@H](Nc2ccccc2C(=O)C2CCCCC2)C(=O)O)cc1)c1nc2ccccc2o1 |
| 724 nM | CN(CCOc1ccc(CC(Nc2ccncc2C(=O)c2ccccc2)C(=O)O)cc1)c1nc2ccccc2o1 (stereo unspecified) |
| 2.7 nM | CN(CCOc1ccc(CC(Nc2ccccc2C(=O)c2cccc3ccccc23)C(=O)O)cc1)c1nc2ccccc2o1 (stereo unspecified) |
| 1580 nM | Cc1oc(-c2ccccc2)nc1CCOc1ccc(CC(Nc2ccccc2C(=O)c2cccc(C(=O)O)c2)C(=O)O)cc1 (stereo unspecified) |
